Data published in EP2573089A1, “Novel artmisinin derivatives” (Spago Imaging AB, priority 2011, dated 2013).

Format: physicochemical
Details: for area of the main peak has decreased: after 72h at pH = 2.3, sodiumphosphate buffer, HPLC-ELSD
Method: Example 11. The acid stability of four dihydroartemisinin (DHA) derivatives was investigated. […] Phenomex Luna; 50 x 4.6 mm, 3 μ C18. ACN/H2O; 60/40 at 1.0 ml/min DHA dissolved in mob. phase to give 0,21 mg/ml Compound of formula 1, n=4 (3PEG-DHA) dissolved in H2O to give 0.48 mg/ml in 0.1 M buffer. […] Artemisone dissolved in mob. phase to give 0.20 mg/ml in 0.1 M buffer, Artesunate dissolved in mob. phase to give 0.24 mg/ml in 0.1 M buffer. 20 μ[…]

degradation | degraded (72 h, 0.24 mg/ml, pH 2.3) | area of the main peak has decreased | Compound
No sign of degradation | 41% | about 40% | C[C@H]1[C@H](OC(=O)CCC(=O)O)O[C@@H]2O[C@@]3(C)CC[C@H]4[C@H](C)CC[C@@H]1[C@@]24OO3 [artesunate]
No sign of degradation | – | about 71% | C[C@H]1[C@H](N2CCS(=O)(=O)CC2)O[C@@H]2O[C@@]3(C)CC[C@H]4[C@H](C)CC[C@@H]1[C@@]24OO3 [artemison, artemisone]
